According to patent publication US8557816B2, “Aurora kinase modulators and method of use” (Amgen Inc., priority 2007, dated 2013):
Where two headings read alike, the source gives them in different places.

Legend:
[1] = biological target: T1, AuroraA-TPX2 (Homo sapiens, UniProt O14965); assay: AuroraA-TPX2 Homogeneous Time Resolved Fluorescent (HTRF) kinase assay; type: biochemical
T1 construct: 20 μL of AuroraA-TPX2 KD GST for a final volume of about 41 μL; GST
T1 sequence (O14965 133-383 limits assumed): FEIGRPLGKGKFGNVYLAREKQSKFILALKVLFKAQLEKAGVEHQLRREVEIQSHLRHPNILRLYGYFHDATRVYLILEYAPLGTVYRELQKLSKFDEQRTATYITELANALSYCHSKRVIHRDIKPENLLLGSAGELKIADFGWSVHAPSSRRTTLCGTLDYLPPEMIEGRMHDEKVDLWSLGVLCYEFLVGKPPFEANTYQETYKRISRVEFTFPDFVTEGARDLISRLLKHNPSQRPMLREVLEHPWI
T1 sequence (Q9ULW0 1-43 partner limits assumed): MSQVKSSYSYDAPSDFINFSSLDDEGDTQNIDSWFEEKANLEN
Outline: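 HTRF read-out (Eu 615 nm to APC 655 nm) of phosphorylated biotin-PLK, detected with 0.02 nM europium anti-phosphoPLK antibody and 0.0005 mg/mL SA-APC after overnight equilibration.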

[2] = biological target: T2, AuroraB (Homo sapiens, UniProt Q96GD4); assay: AuroraB Homogeneous Time Resolved Fluorescent (HTRF) kinase assay; type: biochemical
T2 construct: 20 μL of AuroraB FL H is for a final volume of 41 μL; His
T2 sequence (Q96GD4 whole entry): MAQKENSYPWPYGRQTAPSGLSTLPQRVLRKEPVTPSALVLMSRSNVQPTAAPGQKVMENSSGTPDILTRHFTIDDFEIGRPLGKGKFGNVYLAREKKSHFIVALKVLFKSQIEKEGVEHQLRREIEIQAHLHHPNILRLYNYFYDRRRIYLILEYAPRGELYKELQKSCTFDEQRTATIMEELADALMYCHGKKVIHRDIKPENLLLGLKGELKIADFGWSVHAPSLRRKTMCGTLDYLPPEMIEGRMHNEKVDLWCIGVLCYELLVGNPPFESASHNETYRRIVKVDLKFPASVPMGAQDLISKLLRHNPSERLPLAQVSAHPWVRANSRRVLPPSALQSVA
Outline: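 Read-out is time-resolved FRET between europium anti-phospho-H3 antibody and streptavidin-APC, added in EDTA buffer to stop the reaction and equilibrated about 60 min (ex 320, em 615 and 655 nm). Preceding reaction: ~90 min, full-length enzyme, ATP, 0.1 μM biotin-Histone H3 substrate, Mg/Mn HEPES buffer pH 7.5.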

[3] = average, read-out: AurA_IC50_IP (uM Avg)
[4] = average, read-out: AurB_IC50_IP (uM Avg)

Row | SMILES | IC50 [1, 3] [µM] | IC50 [2, 4] [µM] | IC50 ([1]; given as class symbol, read-out: AurA_IC50_IP (class symbol)) [µM] | IC50 ([2]; given as class symbol, read-out: AurB_IC50_IP (class symbol)) [µM]
1 | COc1ccc2nccc(Oc3ccc(Nc4nnc(-c5ccc6c(c5)OCO6)c5ccccc45)cc3)c2n1 [compound 551] | 0.096 | 0.017 |  | 
2 | N#Cc1ccc2c(Oc3ccc(Nc4nnc(-c5ccc(Cl)c(C#N)c5)c5ccccc45)cc3)ccnc2c1 [compound 231, 4-((4-((4-(4-chloro-3-cyanophenyl)-1-phthalazinyl)amino)phenyl)oxy)-7-quinolinecarbonitrile] | 0.379 | 0.032 |  | 
3 | COc1cnc2c([S+]([O-])c3ccc(Nc4nnc(-c5ccc(F)cc5)c5ccccc45)cc3)ccnc2c1 (stereo not shown) [Example 410, 4-(4-fluorophenyl)-N-(4-(7-methoxy-1,5-naphthyridin-4-ylsulfinyl)phenyl)phthalazin-1-amine] | 0.532 | 0.645 |  | 
4 | COc1cc2nccc(Oc3ccc(Nc4ncc(-c5ccccc5)c5ccccc45)cc3)c2cn1 [compound 145, N-(4-((7-(methyloxy)-1,6-naphthyridin-4-yl)oxy)phenyl)-4-phenyl-1-isoquinolinamine] | 0.326 | 0.096 |  | 
5 | COc1cc2nccc(Oc3ccc(Nc4nnc(N5CCN(C)CC5)c5ccccc45)cc3)c2cn1 [compound 109, N-(4-((7-(methyloxy)-1,6-naphthyridin-4-yl)oxy)phenyl)-4-(4-methyl-1-piperazinyl)-1-phthalazinamine] | 0.06 | 0.001 |  | 
6 | CN(c1ccc(Oc2ccnc3ccc(=O)[nH]c23)cc1)c1nnc(-c2ccc(Cl)cc2)c2ccccc12 [compound 500] | > 25 | 4.17 |  | 
7 | COc1cnc2c(Oc3ccc(Nc4nnc(-c5cnc6[nH]ccc6c5)c5ccccc45)cc3)ccnc2c1 [compound 280, N-(4-((7-(methyloxy)-1,5-naphthyridin-4-yl)oxy)phenyl)-4-(1H-pyrrolo[2,3-b]pyridin-5-yl)-1-phthalazinamine] | 0.062 | 0.002 |  | 
8 | c1ccc(-c2nnc(Nc3ccc(Sc4ccnc5[nH]ccc45)cc3)c3ccccc23)cc1 [compound 329, 4-phenyl-N-(4-(1H-pyrrolo[2,3-b]pyridin-4-ylthio)phenyl)-1-phthalazinamine] | 0.114 | 0.009 |  | 
9 | COc1cc2nccc(Sc3ccc(Nc4nnc(-c5ccc(Cl)cc5)c5ccccc45)cc3)c2nc1OC [compound 598] | 0.135 | 0.595 |  | 
10 | COc1cnc2c(Sc3ccc(Nc4nnc(N5CCCCC5)c5ccccc45)cc3)ccnc2c1 [compound 346, N-(4-(7-methoxy-1,5-naphthyridin-4-ylthio)phenyl)-4-(piperidin-1-yl)phthalazin-1-amine] | 0.044 | 0.024 |  | 
11 | N#Cc1ccc2nccc(Oc3ccc(Nc4nnc(-c5ccccc5)c5ccccc45)cc3)c2c1 [compound 592] | 0.338 | 0.022 |  | 
12 | COc1cnc2c(Oc3ccc(Nc4nnc(-c5ccccc5)c5ccccc45)nc3)ccnc2c1 [compound 135, N-(5-((7-(methyloxy)-1,5-naphthyridin-4-yl)oxy)-2-pyridinyl)-4-phenyl-1-phthalazinamine] | 0.063 | 0.012 |  | 
13 | Cc1ccc(-c2nnc(Nc3ccc(Oc4ccnc5cccnc45)cc3)c3ccccc23)cc1N [compound 416] | 0.098 | 0.003 |  | 
14 | O=C(Nc1cc(Oc2ccc(Nc3nnc(-c4ccccc4)c4ccccc34)cc2F)ccn1)N1CCOCC1 [compound 179, N-(4-((2-fluoro-4-((4-phenyl-1-phthalazinyl)amino)phenyl)oxy)-2-pyridinyl)-4-morpholinecarboxamide] | 0.18 | 0.043 |  | 
15 | c1ccc(-c2nnc(Nc3ccc(Sc4ccnc5ccccc45)cc3)c3ccccc23)cc1 [compound 294, 4-phenyl-N-(4-(4-quinolinylthio)phenyl)-1-phthalazinamine] |  |  | < 0.1 | < 0.1
16 | COc1cnc2c(Sc3ccc(Nc4nnc(C#N)c5ccccc45)cc3)ccnc2c1 [Example 404, 4-(4-(7-Methoxy-1,5-naphthyridin-4-ylthio)phenylamino)phthalazine-1-carbonitrile] | 0.447 | 0.009 |  | 
17 | Cc1csc(-c2nnc(Nc3ccc(Sc4ccnc5ccc(OC(F)(F)F)cc45)cc3)c3ccccc23)c1 [compound 572] | > 25 | > 25 |  | 
18 | CC(=O)Nc1ccc2nccc(Oc3ccc(Nc4nnc(-c5ccccc5)c5ccccc45)cc3)c2c1 [Example 43, N-(4-(4-(4-Phenylphthalazin-1-ylamino)phenoxy)quinolin-6-yl)acetamide] | 0.112 | 0.008 |  | 
19 | CCc1cc(-c2ccccc2)nnc1Nc1ccc(Oc2ccnc3cc(OC)cnc23)nc1 [compound 83, 4-ethyl-N-(6-((7-(methyloxy)-1,5-naphthyridin-4-yl)oxy)-3-pyridinyl)-6-phenyl-3-pyridazinamine] | 0.08 | 0.01 |  | 
20 | COc1ccc2c(C(C)c3ccc(Nc4nnc(-c5ccc(Cl)cc5)c5ccccc45)cc3)ccnc2c1 (stereo not shown) [compound 613] | > 25 | 0.243 |  | 
21 | COc1cnc2c(Oc3ccc(Nc4nnc(-c5sccc5C)c5ccccc45)cc3)ccnc2c1 [compound 185, N-(4-((7-(methyloxy)-1,5-naphthyridin-4-yl)oxy)phenyl)-4-(3-methyl-2-thienyl)-1-phthalazinamine] | 0.231 | 0.006 |  | 

More lines, in order of falling IC50 [1, 3], values ahead:

Row | IC50 [1, 3] [µM] | IC50 [2, 4] [µM] | IC50 ([1]; given as class symbol, read-out: AurA_IC50_IP (class symbol)) [µM] | IC50 ([2]; given as class symbol, read-out: AurB_IC50_IP (class symbol)) [µM] | SMILES
22 | 0.036 | 0.031 |  |  | COc1ccc2nccc(Sc3ccc(Nc4nnc(-c5ccc(Cl)cc5)c5ccccc45)cc3)c2c1 [compound 315, 4-(4-chlorophenyl)-N-(4-(6-methoxyquinolin-4-ylthio)phenyl)phthalazin-1-amine]
23 | 0.035 | 0.02 |  |  | COC1CCN(c2nnc(Nc3ccc(Sc4ccnc5cc(C#N)ccc45)cc3)c3ccccc23)CC1 [compound 534]
24 | 0.027 | 0.005 |  |  | Cc1ccc(-c2nnc(Nc3ccc(Oc4ccnc5ccccc45)c(F)c3)c3ccccc23)cc1 [compound 161, N-(3-fluoro-4-(4-quinolinyloxy)phenyl)-4-(4-methylphenyl)-1-phthalazinamine]
25 | 0.027 | 0.002 |  |  | Cc1csc(-c2nnc(Nc3ccc(Oc4ccnc5cc(C(N)=O)ccc45)cc3)c3ccccc23)n1 [compound 95, 4-((4-((4-(4-methyl-1,3-thiazol-2-yl)-1-phthalazinyl)amino)phenyl)oxy)-7-quinolinecarboxamide]
26 | 0.026 | 0.005 |  |  | COc1cc2nccc(Oc3ccc(Nc4nnc(-c5ccccc5)c5ccccc45)cc3)c2cn1 [compound 96, N-(4-((7-(methyloxy)-1,6-naphthyridin-4-yl)oxy)phenyl)-4-phenyl-1-phthalazinamine]
27 | 0.023 | 0.002 |  |  | COc1cnc2c(Oc3ccc(Nc4nnc(-c5cnc6ccccc6c5)c5ccccc45)cc3)ccnc2c1 [compound 182, N-(4-((7-(methyloxy)-1,5-naphthyridin-4-yl)oxy)phenyl)-4-(3-quinolinyl)-1-phthalazinamine]
28 | 0.021 | 0.001 |  |  | CCc1cc(-c2ccccc2)nnc1Nc1ccc(Oc2ccnc3cc(C(N)=O)ccc23)cc1 [compound 49, 4-((4-((4-ethyl-6-phenyl-3-pyridazinyl)amino)phenyl)oxy)-7-quinolinecarboxamide]
29 | 0.02 | 0.004 |  |  | COc1ccc(-c2nnc(Nc3ccc(Oc4ccnc5cc(OC)cnc45)cc3)c3ccccc23)cc1 [Example 37, N-(4-(7-methoxy-1,5-naphthyridin-4-yloxy)phenyl)-4-(4-methoxyphenyl)phthalazin-1-amine]
30 | 0.019 | 0.008 |  |  | Cc1csc(-c2nnc(Nc3ccc(Sc4ccnc5ccc(=O)[nH]c45)cc3)c3ccccc23)c1 [compound 589]
31 | 0.018 | 0.003 |  |  | COc1cnc2c(Oc3ccc(Nc4nnc(-c5ccc(C)cn5)c5ccccc45)cc3)ccnc2c1 [compound 125, N-(4-((7-(methyloxy)-1,5-naphthyridin-4-yl)oxy)phenyl)-4-(5-methyl-2-pyridinyl)-1-phthalazinamine]
32 | 0.016 | 0.014 |  |  | CCOc1nc(-c2nnc(Nc3ccc(Sc4ccnc5cc(OC)cnc45)cc3)c3ccccc23)cs1 [compound 505]
33 | 0.014 | 0.007 |  |  | COc1cc2nccc(Oc3ccc(Nc4nnc(-c5cccc(C)n5)c5ccccc45)cc3)c2cc1OC [compound 150, N-(4-((6,7-bis(methyloxy)-4-quinolinyl)oxy)phenyl)-4-(6-methyl-2-pyridinyl)-1-phthalazinamine]
34 | 0.014 | 0.023 |  |  | COc1cnc2c(Oc3ccc(Nc4nnc(-c5cc(Cl)cs5)c5ccccc45)cc3)ccnc2c1 [compound 316, 4-(4-chloro-2-thienyl)-N-(4-((7-(methyloxy)-1,5-naphthyridin-4-yl)oxy)phenyl)-1-phthalazinamine]
35 | 0.008 | 0.005 |  |  | COc1cnc2c(Oc3ccc(Nc4nnc(-c5ccc6c(c5)CCO6)c5ccccc45)cc3)ccnc2c1 [compound 168, 4-(2,3-dihydro-1-benzofuran-5-yl)-N-(4-((7-(methyloxy)-1,5-naphthyridin-4-yl)oxy)phenyl)-1-phthalazinamine]
